Assay results taken from patent US8252737B2, “Antimicrobial peptides and methods of use” (priority 2004, dated 2012).
In brackets after ≈: the same amount, converted by molar mass. Where two headings read alike, the source gives them in different places. Square brackets hold non-standard residues; d marks the D form. Peptide text beside a SMILES is read from it.

Legend:
gram-negative bacteria = assay: MIC, microtiter dilution, Gram-negative bacteria (geometric mean of 6 strains); type: cell-based; details: for MIC (μg/ml) Gram-negative: geometric mean MIC, Table 9
Protocol: The geometric mean MIC values from 6 microbial strains in this table were calculated to provide an overall evaluation of antimicrobial activity against gram-negative bacteria.
In Table 11, geometric mean MIC was calculated to provide an overall view of antimicrobial activity of the peptides against Gram-negative bacteria and was also used to calculate the therapeutic index.
(§1) Measurement of Antimicrobial Activity—Minimal inhibitory concentrations (MICs) were determined using a standard microtiter dilution method in LB (Luria-Bertani) no-salt medium (10 g of tryptone and 5 g of yeast extract per liter). Briefly, cells were grown overnight at 37° C. in LB and diluted in the same medium. […] Plates were incubated at 37° C. for 24 hours and MICs determined as the lowest peptide concentration that inhibited growth. Alternatively, minimal inhibitory concentrations were determined using a standard microtiter dilution method in a Mueller-Hinton (MH) medium. Briefly, cells were grown overnight at 37° C. in MH broth and diluted in the same medium. […] Plates were incubated at 37° C. for 24 hours and MICs determined as the lowest peptide concentration that inhibited growth. However, for MIC determination of Pseudomonas aeruginosa clinical isolates, brain heart infusion (BH1) medium was used instead of MH broth. In addition, the bacteria were diluted to a final inoculum of 1×10^6 colony-forming units/ml.

human erythrocytes = assay: Hemolytic activity (MHC), Protocol A, 12 hours; details: for minimal hemolytic concentration (MHC): incubation for 12 hours at 37° C. (Tables 7 and 8)
Protocol: Measurement of Hemolytic Activity—Protocol A: Peptide samples were added to 1% human erythrocytes in phosphate buffered saline (0.08M NaCl; 0.043M Na2PO4; 0.011M KH2PO4) and reactions were incubated at 37° C. for 12 hours in microtiter plates. Peptide samples were diluted 2 fold in order to determine the concentration that produced no hemolysis. […] Hemoglobin release was determined spectrophotometrically at 562 nm. The hemolytic titer was the highest 2-fold dilution of the peptide that still caused release of hemoglobin from erythrocytes. The control for no release of hemoglobin was a sample of 1% erythrocytes without any peptide added. […] Peptide samples were diluted 2 fold in order to determine the concentration that produced no hemolysis. […] Hemoglobin release was determined spectrophotometrically at 570 nm. The hemolytic titer was the highest 2-fold dilution of the peptide that still caused release of hemoglobin from erythrocytes. The control for no release of hemoglobin was a sample of 1% erythrocytes without any peptide added.

[1] = RP-HPLC temperature profiling (hydrophobicity and self-association/dimerization parameter PA); type: physicochemical; details: for tR (min) 5° C.: RP-HPLC retention time at 5° C. during temperature profiling (measure of hydrophobicity); for tR (min) 80° C.: RP-HPLC retention time at 80° C. during temperature profiling; for tR (min) Max: maximal RP-HPLC retention time during temperature profiling 5-80° C.; for PA (min) association parameter: maximal retention time difference relative to control peptide C within 5-80° C.; for ΔtR (X-NVL) (min) 5° C.: retention time difference relative to native peptide V681 (NVL) at 5° C.; for ΔtR (X-NVL) (min) 5° C. / ΔtR (X-NVL) (min) 80° C. / ΔtR (X-PSL) (min) 5° C. / ΔtR (X-PSL) (min) 80° C.: relative hydrophobicity; for ΔtR (X-NVL) (min) 80° C.: retention time difference relative to native peptide V681 (NVL) at 80° C.; for ΔtR (X-PSL) (min) 5° C. / ΔtR (X-PSL) (min) 80° C.: polar face substitutions; for ΔtR (X-PSL) (min) 5° C.: retention time difference relative to native peptide V681 (PSL) at 5° C.; for ΔtR (X-PSL) (min) 80° C.: retention time difference relative to native peptide V681 (PSL) at 80° C.
Procedure, shortened: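 RP-HPLC retention times recorded over temperature profiling from 5°C to 80°C, with retention relative to native V681 at each limit used as hydrophobicity. Self-association parameter PA defined as the maximal change in retention time from 5°C, after subtracting that of monomeric random-coil control peptide C.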

gram-positive bacteria = system: gram-positive bacteria
Protocol: as §1

[2] = minimal hemolytic concentration on human red blood cells (hRBC), Table 9

Molecule: CC[C@H](C)[C@H](NC(=O)[C@H](C)NC(=O)[C@H](CCCCN)NC(=O)[C@H](CC(C)C)NC(=O)[C@H](C)NC(=O)[C@@H](NC(=O)[C@H](Cc1c[nH]cn1)NC(=O)[C@H](CC(C)C)NC(=O)[C@@H](NC(=O)[C@@H](NC(=O)[C@H](CCCCN)NC(=O)[C@H](NC(=O)[C@H](C)NC(=O)[C@H](CO)NC(=O)[C@H](CCCCN)NC(=O)[C@H](Cc1ccccc1)NC(=O)[C@@H](NC(=O)[C@H](CCCCN)NC(=O)[C@H](CC(C)C)NC(=O)[C@H](Cc1ccccc1)NC(=O)[C@H](CO)NC(=O)[C@H](CCCCN)NC(=O)[C@H](Cc1c[nH]c2ccccc12)NC(=O)[C@H](CCCCN)NC(C)=O)[C@@H](C)O)C(C)C)[C@@H](C)O)C(C)C)[C@@H](C)O)C(=O)N[C@@H](CO)C(=O)N[C@@H](CO)C(N)=O [NVD]
- MIC (μg/ml) Gram-negative (gram-negative bacteria): 3.3 µg/mL (≈ 1.11 µM)
- MHC (human erythrocytes; [2]): 62.5 µg/mL
- tR (min) 5° C. [1]: 42.55 min
- tR (min) 80° C. [1]: 40.15 min
- tR (min) Max [1]: 43.43 min
- PA (min) association parameter [1]: 2.63 min
- ΔtR (X-NVL) (min) 5° C. ([1]; non-polar face substitutions): -5.55 min
- ΔtR (X-NVL) (min) 80° C. ([1]; non-polar face substitutions): -5.68 min
- MIC (μg/ml) Gram-positive (gram-positive bacteria; geometric mean MIC, Table 9): 2.8 µg/mL (≈ 0.945 µM)

Molecule: Ac-KWKSFLKTFKSASKTVLHTALKAISS-NH2 [NSL]
- MIC (μg/ml) Gram-negative (gram-negative bacteria): 4.2 µg/mL
- minimal hemolytic concentration (MHC) (human erythrocytes): 125 µg/mL
- MHC (human erythrocytes; [2]): 125.0 µg/mL
- tR (min) 5° C. [1]: 40.72 min
- tR (min) 80° C. [1]: 37.62 min
- decrease in hydrophobicity relative to NVL (V681) ([1]; RP-HPLC retention time difference at 80° C., non-polar face substitutions): -8.21 min
- tR (min) Max [1]: 41.08 min
- PA (min) association parameter [1]: 1.82 min
- ΔtR (X-NVL) (min) 5° C. ([1]; non-polar face substitutions): -7.38 min
- ΔtR (X-NVL) (min) 80° C. ([1]; non-polar face substitutions): -8.21 min
- MIC (μg/ml) Gram-positive (gram-positive bacteria): 7.4 µg/mL

Molecule: CC[C@H](C)[C@H](NC(=O)[C@H](C)NC(=O)[C@H](CCCCN)NC(=O)[C@H](CC(C)C)NC(=O)[C@H](C)NC(=O)[C@@H](NC(=O)[C@H](Cc1c[nH]cn1)NC(=O)[C@H](CC(C)C)NC(=O)[C@@H](NC(=O)[C@@H](NC(=O)[C@H](CCCCN)NC(=O)[C@@H](NC(=O)[C@H](C)NC(=O)[C@@H](CCCCN)NC(=O)[C@H](CCCCN)NC(=O)[C@H](Cc1ccccc1)NC(=O)[C@@H](NC(=O)[C@H](CCCCN)NC(=O)[C@H](CC(C)C)NC(=O)[C@H](Cc1ccccc1)NC(=O)[C@H](CO)NC(=O)[C@H](CCCCN)NC(=O)[C@H](Cc1c[nH]c2ccccc12)NC(=O)[C@H](CCCCN)NC(C)=O)[C@@H](C)O)C(C)C)[C@@H](C)O)C(C)C)[C@@H](C)O)C(=O)N[C@@H](CO)C(=O)N[C@@H](CO)C(N)=O [PKD] (Ac-KWKSFLKTFK[dK]AVKTVLHTALKAISS-NH2)
- MIC (μg/ml) Gram-negative (gram-negative bacteria): 2.6 µg/mL (≈ 0.866 µM)
- fold improvement on the average MIC compared to V681 (gram-negative bacteria; gram-negative bacteria, geometric mean comparison, Table 7): 3.4
- MHC (human erythrocytes): 31.2 µg/mL
- tR (min) 5° C. [1]: 42.20 min
- tR (min) 80° C. [1]: 39.29 min
- tR (min) Max [1]: 42.87 min
- PA (min) association parameter [1]: 2.23 min
- ΔtR (X-PSL) (min) 5° C. [1]: -5.90 min
- ΔtR (X-PSL) (min) 80° C. [1]: -6.54 min
- MIC (μg/ml) Gram-positive (gram-positive bacteria): 2.8 µg/mL (≈ 0.932 µM)

Molecule: CC[C@H](C)[C@H](NC(=O)[C@H](C)NC(=O)[C@H](CCCCN)NC(=O)[C@H](CC(C)C)NC(=O)[C@H](C)NC(=O)[C@@H](NC(=O)[C@H](Cc1c[nH]cn1)NC(=O)[C@H](CC(C)C)NC(=O)[C@@H](NC(=O)[C@@H](NC(=O)[C@H](CCCCN)NC(=O)[C@@H](NC(=O)[C@H](C)NC(=O)[C@@H](CC(C)C)NC(=O)[C@H](CCCCN)NC(=O)[C@H](Cc1ccccc1)NC(=O)[C@@H](NC(=O)[C@H](CCCCN)NC(=O)[C@H](CC(C)C)NC(=O)[C@H](Cc1ccccc1)NC(=O)[C@H](CO)NC(=O)[C@H](CCCCN)NC(=O)[C@H](Cc1c[nH]c2ccccc12)NC(=O)[C@H](CCCCN)NC(C)=O)[C@@H](C)O)C(C)C)[C@@H](C)O)C(C)C)[C@@H](C)O)C(=O)N[C@@H](CO)C(=O)N[C@@H](CO)C(N)=O [PLD] (Ac-KWKSFLKTFK[dL]AVKTVLHTALKAISS-NH2)
- MIC (μg/ml) Gram-negative (gram-negative bacteria): 5.0 µg/mL (≈ 1.67 µM)
- MHC (human erythrocytes): 31.2 µg/mL
- tR (min) 5° C. [1]: 44.73 min
- tR (min) 80° C. [1]: 42.14 min
- tR (min) Max [1]: 45.85 min
- PA (min) association parameter [1]: 2.82 min
- ΔtR (X-PSL) (min) 5° C. [1]: -3.37 min
- ΔtR (X-PSL) (min) 80° C. [1]: -3.69 min
- MIC (μg/ml) Gram-positive (gram-positive bacteria): 4.7 µg/mL (≈ 1.57 µM)

Molecule: CC[C@H](C)[C@H](NC(=O)[C@H](C)NC(=O)[C@H](CCCCN)NC(=O)[C@H](CC(C)C)NC(=O)[C@H](C)NC(=O)[C@@H](NC(=O)[C@H](Cc1c[nH]cn1)NC(=O)[C@H](CC(C)C)NC(=O)[C@@H](NC(=O)[C@@H](NC(=O)[C@H](CCCCN)NC(=O)[C@@H](CCCCN)NC(=O)[C@H](C)NC(=O)[C@H](CO)NC(=O)[C@H](CCCCN)NC(=O)[C@H](Cc1ccccc1)NC(=O)[C@@H](NC(=O)[C@H](CCCCN)NC(=O)[C@H](CC(C)C)NC(=O)[C@H](Cc1ccccc1)NC(=O)[C@H](CO)NC(=O)[C@H](CCCCN)NC(=O)[C@H](Cc1c[nH]c2ccccc12)NC(=O)[C@H](CCCCN)NC(C)=O)[C@@H](C)O)[C@@H](C)O)C(C)C)[C@@H](C)O)C(=O)N[C@@H](CO)C(=O)N[C@@H](CO)C(N)=O [NKD]
- MIC (μg/ml) Gram-negative (gram-negative bacteria): 7.7 µg/mL (≈ 2.57 µM)
- MHC (human erythrocytes; [2]): >250.0 µg/mL
- tR (min) 5° C. [1]: 34.05 min
- tR (min) 80° C. [1]: 30.96 min
- tR (min) Max [1]: 34.05 min
- PA (min) association parameter [1]: 1.10 min
- ΔtR (X-NVL) (min) 5° C. ([1]; non-polar face substitutions): -14.05 min
- ΔtR (X-NVL) (min) 80° C. ([1]; non-polar face substitutions): -14.87 min
- MIC (μg/ml) Gram-positive (gram-positive bacteria; geometric mean MIC, Table 9): 18.7 µg/mL (≈ 6.25 µM)

Molecule: Ac-KWKSFLKTFKSALKTVLHTALKAISS-NH2 [NLL]
- geometric mean MIC against Gram-negative bacteria (gram-negative bacteria; 6 strains of Table 7): 12.7 µg/mL
- minimal hemolytic concentration (MHC) (human erythrocytes): 7.8 µg/mL
- tR (min) 5° C. [1]: 48.16 min
- tR (min) 80° C. [1]: 47.02 min
- tR (min) Max [1]: 50.45 min
- PA (min) association parameter [1]: 4.22 min
- ΔtR (X-NVL) (min) 5° C. ([1]; non-polar face substitutions): 0.06 min
- ΔtR (X-NVL) (min) 80° C. ([1]; non-polar face substitutions): 1.19 min
